Columns and labels:
Test in all cases: relative viability (nuclei count vs DMSO), 5 days (fraction); higher = more cells survive
[1] = compound: C1=CC=C(C(=C1)C2=CC=C(C=C2)C3=CSC4=C3C(=C(C(=O)N4)C#N)O)O + CC1(C)CCC(c2ccc(Cl)cc2)=C(CN2CCN(c3ccc(C(=O)NS(=O)(=O)c4ccc(N[C@H](CCN5CCOCC5)CSc5ccccc5)c(S(=O)(=O)C(F)(F)F)c4)cc3)CC2)C1 [Navitoclax] (partner 0.5 µM)
Procedure, shortened: (§1)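 Cells from lung cancer lines were seeded into 1536-well plates and, one day later, dosed by pin tool. Treatments were either a single drug or a fixed dose of an anchor drug with five library-drug doses (not always all listed) in √10 steps. After 5 days, nuclei were stained in a one-step fixation (final 0.05% Triton X-100, 1% formaldehyde, 1 ug/ml Hoechst) and counted on 4× images, and relative viability is the treated-to-vehicle nuclei ratio, as the median of duplicate plates.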

[2] = compound: CC1=CN2C(=O)C=C(N=C2C(=C1)C(C)NC3=CC=CC=C3)N4CCOCC4 [TGX 221] + CC(=O)c1c(C)c2cnc(Nc3ccc(N4CCNCC4)cn3)nc2n(C2CCCC2)c1=O [Palbociclib] (partner 0.5 µM)
Procedure, shortened: as §1

[3] = compound: CC1=CN2C(=O)C=C(N=C2C(=C1)C(C)NC3=CC=CC=C3)N4CCOCC4 [TGX 221] + CC1(C)CCC(c2ccc(Cl)cc2)=C(CN2CCN(c3ccc(C(=O)NS(=O)(=O)c4ccc(N[C@H](CCN5CCOCC5)CSc5ccccc5)c(S(=O)(=O)C(F)(F)F)c4)cc3)CC2)C1 [Navitoclax] (partner 0.5 µM)
Procedure, shortened: as §1

[4] = compound: O=C(CCCCCCNC(=O)c1cnc(N(c2ccccc2)c2ccccc2)nc1)NO [Ricolinostat] + Nc1nc2[nH]cc(CCc3ccc(C(=O)N[C@@H](CCC(=O)O)C(=O)O)cc3)c2c(=O)[nH]1 [Pemetrexed] (partner 0.2 µM)
Procedure, shortened: as §1

Cell Line	relative viability ([1]; first compound 0.08 µM)	relative viability ([1]; first compound 0.253 µM)	relative viability ([1]; first compound 0.8 µM)	relative viability ([1]; first compound 2.53 µM)	relative viability ([1]; first compound 8 µM)	relative viability ([2]; first compound 0.08 µM)	relative viability ([2]; first compound 0.253 µM)	relative viability ([2]; first compound 0.8 µM)	relative viability ([2]; first compound 2.53 µM)	relative viability ([2]; first compound 8 µM)	relative viability ([3]; first compound 0.253 µM)	relative viability ([3]; first compound 0.8 µM)	relative viability ([3]; first compound 2.53 µM)	relative viability ([3]; first compound 8 µM)	relative viability ([4]; first compound 0.08 µM)	relative viability ([4]; first compound 0.253 µM)	relative viability ([4]; first compound 0.8 µM)	relative viability ([4]; first compound 2.53 µM)	relative viability ([3]; first compound 0.08 µM)
201T	1.25	1.18	1.19	1.18	1.26	0.356	0.348	0.331	0.337	0.32	1.26	1.21	1.19	1.15	0.339	0.314	0.334	0.311	–
A549	1.37	1.44	1.28	1.28	1.04	–	–	–	–	–	1.17	1.18	1.18	1.11	–	–	–	–	1.29
A-427	0.999	0.951	1.01	0.957	1.02	0.542	0.546	0.513	0.504	0.516	0.976	0.949	0.935	0.803	0.711	0.941	0.828	0.832	1.05
ABC-1	–	–	–	–	–	0.742	0.519	0.654	0.648	0.597	–	–	–	–	–	–	–	–	–
BEN	0.0583	0.07	0.0922	0.0562	0.063	0.483	0.413	0.439	0.487	0.503	0.0617	0.0682	0.0659	0.0557	0.589	0.88	0.667	0.518	0.0671
CAL-12T	–	1.23	1.22	1.45	1.06	0.466	0.556	0.467	0.326	0.0733	1.2	1.36	1.23	1.07	0.884	1.15	1.28	1.37	1.06
COR-L23	1.09	0.983	1.21	1.06	0.762	0.247	0.278	0.305	0.3	0.284	1.02	0.963	0.954	0.997	0.199	0.212	0.188	0.17	1.01
COR-L 105	0.951	0.776	0.829	0.704	0.784	0.417	0.4	0.332	0.473	0.41	0.613	0.842	0.799	0.558	0.901	1.08	1.2	1.24	0.97
Calu-6	0.831	0.981	1.03	0.843	0.785	–	–	–	–	–	0.813	0.872	0.753	0.733	–	–	–	–	0.853
ChaGo-K-1	0.642	0.833	0.909	1	1.37	0.853	0.835	0.916	0.921	0.935	1.02	0.987	0.737	1.36	0.253	0.255	0.262	0.27	0.957
EBC-1	0.353	0.371	0.425	0.37	0.348	–	–	–	–	–	0.408	0.428	0.277	0.258	–	–	–	–	0.43
EKVX	0.897	1.13	1.03	0.922	0.903	0.313	0.418	0.358	0.329	0.299	0.869	0.866	0.908	0.758	0.34	0.394	0.335	0.406	0.926
EMC-BAC-2	0.963	1.28	1.2	1.46	0.774	0.493	0.492	0.51	0.547	0.439	1.1	1.13	1.11	1.05	0.44	0.414	0.38	0.308	1.16
EPLC-272H	–	1.11	1.17	1.12	0.744	0.324	0.35	0.32	0.328	0.289	1.17	1.19	–	1.29	0.448	0.365	0.334	0.297	1.1
H3255	0.534	0.431	0.53	0.602	0.444	0.312	0.342	0.331	0.29	0.321	0.49	0.515	0.553	0.601	0.494	0.544	0.553	0.557	0.486
HARA	–	1.41	1.19	1.15	1.02	0.264	0.28	0.268	0.232	0.246	1.13	1.03	1.13	1.11	0.254	0.256	0.213	0.274	1.18
HCC-15	0.663	0.809	0.763	0.858	0.644	0.497	0.663	0.718	0.635	0.724	0.642	0.579	0.67	0.642	0.22	0.214	0.231	0.234	0.745
HCC-44	0.909	1.09	1	0.938	0.65	1.02	1.01	1	0.933	0.991	0.981	0.918	0.837	0.732	0.661	0.548	0.682	0.601	0.992
HCC-78	0.826	1.02	0.754	0.943	0.708	–	0.428	0.464	0.397	0.435	0.665	–	0.457	0.487	–	0.84	0.902	0.88	0.654

— the supplement of paper PMC10307832
